Measurements as given in US8101622B2, “Pyridopyrimidinone inhibitors of PI3Kα and mTOR” (Exelixis, Inc., priority 2008, dated 2012).

Columns and labels:
PI3Kβ = PI3Kβ (Homo sapiens, UniProt P42338); experiment: PI3K luciferase-coupled chemiluminescence assay (PI3Kβ in place of PI3Kα); assay type: biochemical; conditions: second value of cell 'P13K-α, β'
Experimental: (§1) PI3K Luciferase-Coupled Chemiluminescence Assay Protocol
(§2) PI3Kα activity is measured as the percent of ATP consumed following the kinase reaction using luciferase-luciferin-coupled chemiluminescence. Reactions were conducted in 384-well white, medium binding microtiter plates (Greiner). Kinase reactions were initiated by combining test compounds, ATP, substrate (PIP2), and kinase in a 20 μL volume in a buffer solution. The standard PI3Kalpha assay buffer is composed 50 mM Tris, pH 7.5, 1 mM EGTA, 10 mM MgCl2, 1 mM DTT and 0.03% CHAPS. The standard assay concentrations for enzyme, ATP, and substrate are 1.5 nM, 1 μM, and 10 μM, respectively. The reaction mixture was incubated at ambient temperature for approximately 2 h. Following the kinase reaction, a 10 μL aliquot of luciferase-luciferin mix (Promega Kinase-Glo) was added and the chemiluminescence signal measured using a Victor2 plate reader (Perkin Elmer). Total ATP consumption was limited to 40-60% and IC50 values of control compounds correlate well with literature references. PI3Kα can be replaced with PI3Kβ, PI3Kδ, or PI3Kγ to determine the compound's activity for the other isoforms of PI3K.

PI3Kα = PI3Kα (Homo sapiens, UniProt P42336); experiment: PI3K luciferase-coupled chemiluminescence assay (PI3Kα); assay type: biochemical; conditions: first value of cell 'P13K-α, β'; 1 μM ATP, 10 μM PIP2
Experimental: as §1, §2

mTOR/GbL/Raptor (mTORC1) = mTOR/GbL/Raptor (mTORC1) (Homo sapiens, UniProt P42345); experiment: mTOR/GbL/Raptor (mTORC1) ELISA assay; assay type: biochemical; conditions: mTORC1, 10 μM ATP, 4E-BP1 substrate
Experimental: mTOR/GbL/Raptor (mTORC1) ELISA Assay
The measurement of mTORC1 enzyme activity was performed in an ELISA assay format following the phosphorylation of 4E-BP1 protein. All experiments were performed in the 384-well format. Generally, 0.5 μL DMSO containing varying concentrations of the test compound was mixed with 15 μL enzyme solution. Kinase reactions were initiated with the addition of 15 μL of substrates-containing solution. The assay conditions were as follows; 0.2 nM mTORC1, 10 μM ATP and 50 nM NHis-tagged 4E-BP1 in 20 mM Hepes, pH 7.2, 1 mM DTT, 50 mM NaCl, 10 mM MnCl2, 0.02 mg/mL BSA, 0.01% CHAPS, 50 mM ([…]. Following an incubation of 120 minutes at ambient temperature, 20 μL of the reaction volume was transferred to a Ni-Chelate-coated 384-well plate. The binding step of the 4E-BP1 protein proceeded for 60 minutes, followed by washing 4 times each with 50 μL of Tris-buffered saline solution (TBS). Anti-phospho-4E-BP1 rabbit-IgG (20 μL, 1:5000) in 5% BSA-TBST (0.2% Tween-20 in TBS) was added and further incubated for 60 minutes. Incubation with a secondary HRP-tagged anti-IgG was similarly performed after washing off the primary antibody (4 washes of 50 μL). Following the final wash step with TBST, 20 μL of SuperSignal ELISA Femto (Pierce Biotechnology) was added and the luminescence measured using an EnVision plate reader.

[1] = system: pS6 (S240/S244) PC-3 cell line; experiment: pS6 (S240/244) ELISA assay in PC-3 cells; assay type: cell-based, human; conditions: 3 h compound, ratio pS6 to total S6
Experimental: PC-3 and MCF-7 cells (both from ATCC) were seeded at 8×10^3 cells per well in 96-well plates (Corning, 3904) in DMEM (Cellgro) containing 10% FBS (Cellgro), 1% NEAA (Cellgro) and 1% penicillin-streptomycin (Cellgro). Two plates were prepared for cell fixation ELISA, one for pS6 (S240/244) and one for total S6. Cells were incubated at 37° C., 5% CO2 for 48 h, and the growth medium was replaced with serum-free DMEM. Serial dilutions of the test compound in 0.3% DMSO (vehicle) were added to the cells and incubated for 3 h. To fix the cells, medium was removed and 100 μL/well of 4% formaldehyde (Sigma Aldrich, F8775) in TBS (20 mM Tris, 500 mM NaCl) was added to each well at RT for 30 min. Cells were washed 3 times with 200 μL TBS containing 0.1% Tween20 (Bio-Rad, catalog #170-6351) (TBST), and quenched with 100 μL 0.6% H2O2 (VWR International, catalog #VW3742-1) in TBST for 30 min at RT. Plates were washed 3 times with 200 μL TBST and blocked with 100 μL 5% BSA (Jackson ImmunoResearch, 001-000-173) in TBST for 1 h at RT. Anti-pS6 (S240/244) antibody (Cell Signaling Technology, 2215) and anti-total-S6 antibody (Cell Signaling Technology, 2217) were diluted 1/500 in 5% BSA in TBST, and 50 μL of either primary antibody solution was added to one plate to detect pS6 or total S6. After incubation overnight at 4° C., plates were washed 4 times with 200 μL TBST. Goat anti-rabbit secondary antibody (Jackson ImmunoResearch, catalog #111-035-003) was diluted at 1/15000 in 5% BSA in TBST. 100 μL of antibody solution was added to each well and incubated for 1 h at RT. Plates were washed 3 times with 200 μL TBST and 2 times with 200 μL TBS. Chemiluminescent substrate (Super Signal Elisa Femto Chemiluminescent Substrate; Pierce, 37075) was prepared at RT. One-hundred μL of chemiluminescent substrate per well was added and then the plate was shaken for 1 min. Luminescence was read immediately on a Wallac plate reader. IC50 values were determined based on the ratio of pS6 to total S6 signal for compound treated wells, normalized to the DMSO-treated control wells.

PC-3 cells = experiment: PC-3 2 day BrdU cell proliferation assay; assay type: cell-based, human
Experimental: (§3) MCF-7 and PC-3 2 Day BrdU Cell Proliferation Assay
(§4) MCF-7 (ATCC) and PC-3 (ATCC) cells were seeded onto 96-well plates (Corning, #3904) in their growth medium, DMEM (Cellgro, #10-014-CV)+10% heat-inactivated FBS (Invitrogen)+1% Pen/Strep (Cellgro, #30-002-CI)+1% NEAA (Cellgro, #25-025-CI) at a seeding density of 15000 and 8000 cells/well, respectively. Cells were incubated overnight at 37° C., 5% CO2. Cells were then treated the next day with a serial dilution of compound in its growth medium (containing a final concentration of 0.3% DMSO). Triplicate wells were used for each compound concentration. The control wells received 0.3% DMSO in growth medium. The plates were incubated at 37° C., 5% CO2 for an additional 48 hr. Cells were labeled with BrdU (Roche, #10280879001, 20 μM) for 2-4 hr and then fixed with 70% EtOH+0.1 M NaOH for 30 min at RT. Anti-BrdU-Peroxidase (Roche, #11585860001, 1/2000 in PBS+1% BSA) conjugate was added to the cells, after which the plates were washed 3 times with 1×PBS. Chemiluminescent substrate solution (Pierce, #3707A/B) was added, and the plates were read for luminescence using the Wallac Victor plate reader for 0.1 sec. IC50 values were determined based on cell proliferation with compound treatment compared to the 0.3% DMSO vehicle control.

[2] = Mouse microsomal oxidation assay; assay type: in vitro ADME; conditions: 15 μM compound, 0.5 mg/mL microsomal protein, 1 mM NADPH, 37° C., 30 min; +/−10% equivalent to little or no oxidation
Experimental: Mouse Microsomal Oxidation Assay
Microsomal oxidation of test compounds in the presence of mouse liver microsomal fractions was conducted in 96-well microtiter plates. Liver microsomal preparations were purchased from BD Gentest (Cat #452701). Test compounds were incubated in duplicate at 37° C. for 30 min in the presence of liver microsomes and NADPH. Reaction mixtures (75 μL) contained a final concentration of 15 μM test compound, 0.15% DMSO, 0.5 mg/mL microsomal protein and 1 mM NADPH in 100 mM potassium phosphate, pH 7.4 buffer. Control incubations contained the full complement of enzyme and substrate but no NADPH added. All test-sets included reference CYP450 substrates to verify assay performance. Reactions were terminated by the addition of 150 μL acetonitrile containing 0.1% formic acid. The concentration of the test compound remaining was determined by LC/MS/MS analysis on Sciex API-3000 instrument. The % oxidation is determined by the change in peak integration for the test compound (+/−NADPH) relative to the peak integration of internal standard injected with the sample: % oxidation=[((Int. peakcompound, no NADPH/Int. peakstandard)−(Int. peakcompound, NADPH/Int. peakstandard))[…]] Chromatographic separation of analytes was achieved using a Phenomenex Synergi Hydro-RP column (Torrance, Calif.) and a mobile phase consisting of 0.1% formic acid in acetonitrile and 0.1% formic acid in water. A linear gradient from 2-98% acetonitrile was used to elute compounds from the HPLC column. The typical variation (ie, precision) observed in the measurements for a given sample (e.g., multiple injections of the same sample) is ca. 10%, and thus experimental values of +/−10% can be considered to be equivalent to little or no oxidation.

MCF-7 cells = experiment: MCF-7 2 day BrdU cell proliferation assay; assay type: cell-based, human; conditions: MCF-7, 48 hr
Experimental: as §3, §4

Chain of PI3Kβ (P42338 whole entry, species assumed): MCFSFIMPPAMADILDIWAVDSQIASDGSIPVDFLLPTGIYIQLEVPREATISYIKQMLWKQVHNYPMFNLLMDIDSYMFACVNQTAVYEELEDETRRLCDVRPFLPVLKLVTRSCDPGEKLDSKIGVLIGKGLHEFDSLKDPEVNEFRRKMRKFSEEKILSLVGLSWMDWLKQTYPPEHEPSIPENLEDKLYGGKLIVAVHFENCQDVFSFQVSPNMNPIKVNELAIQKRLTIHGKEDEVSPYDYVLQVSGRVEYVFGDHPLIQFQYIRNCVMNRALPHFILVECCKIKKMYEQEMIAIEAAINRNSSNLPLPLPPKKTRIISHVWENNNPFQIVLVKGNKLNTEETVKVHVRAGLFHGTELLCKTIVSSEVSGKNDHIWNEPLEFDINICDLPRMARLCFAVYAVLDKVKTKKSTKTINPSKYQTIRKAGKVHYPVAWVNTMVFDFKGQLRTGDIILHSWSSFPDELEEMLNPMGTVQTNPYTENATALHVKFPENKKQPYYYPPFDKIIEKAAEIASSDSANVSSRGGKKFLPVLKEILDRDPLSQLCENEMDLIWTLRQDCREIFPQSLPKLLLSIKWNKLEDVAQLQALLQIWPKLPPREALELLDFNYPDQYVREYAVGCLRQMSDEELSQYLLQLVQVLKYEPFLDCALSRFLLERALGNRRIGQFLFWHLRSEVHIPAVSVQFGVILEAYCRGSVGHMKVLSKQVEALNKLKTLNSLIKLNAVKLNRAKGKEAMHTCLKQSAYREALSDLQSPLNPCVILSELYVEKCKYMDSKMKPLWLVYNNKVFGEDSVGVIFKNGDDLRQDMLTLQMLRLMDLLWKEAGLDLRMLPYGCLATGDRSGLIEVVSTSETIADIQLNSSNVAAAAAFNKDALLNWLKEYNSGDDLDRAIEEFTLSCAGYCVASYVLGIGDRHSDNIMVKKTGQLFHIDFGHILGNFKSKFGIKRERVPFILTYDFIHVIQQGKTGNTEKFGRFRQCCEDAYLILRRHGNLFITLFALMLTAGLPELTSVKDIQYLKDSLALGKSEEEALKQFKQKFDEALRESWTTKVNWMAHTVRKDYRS
Chain of PI3Kβ (P27986 whole entry partner, species assumed): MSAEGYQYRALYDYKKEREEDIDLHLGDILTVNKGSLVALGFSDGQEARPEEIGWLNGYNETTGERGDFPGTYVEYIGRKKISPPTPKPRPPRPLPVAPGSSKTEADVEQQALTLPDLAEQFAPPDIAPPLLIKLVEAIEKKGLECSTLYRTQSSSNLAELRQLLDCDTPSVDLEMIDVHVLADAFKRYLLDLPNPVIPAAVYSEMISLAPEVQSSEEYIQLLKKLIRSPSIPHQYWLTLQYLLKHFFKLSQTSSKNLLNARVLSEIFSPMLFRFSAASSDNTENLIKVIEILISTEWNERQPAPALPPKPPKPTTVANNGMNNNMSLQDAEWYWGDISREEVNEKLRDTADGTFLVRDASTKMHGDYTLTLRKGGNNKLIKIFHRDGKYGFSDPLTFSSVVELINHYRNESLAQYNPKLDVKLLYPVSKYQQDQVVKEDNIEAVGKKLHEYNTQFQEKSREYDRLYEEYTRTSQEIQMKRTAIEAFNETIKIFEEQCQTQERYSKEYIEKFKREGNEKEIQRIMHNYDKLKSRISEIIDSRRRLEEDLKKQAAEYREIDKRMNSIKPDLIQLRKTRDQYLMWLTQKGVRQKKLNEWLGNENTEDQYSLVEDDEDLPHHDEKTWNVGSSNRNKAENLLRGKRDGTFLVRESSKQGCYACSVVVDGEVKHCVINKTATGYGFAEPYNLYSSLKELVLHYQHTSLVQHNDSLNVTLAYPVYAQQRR
Chain of PI3Kα (P42336 whole entry): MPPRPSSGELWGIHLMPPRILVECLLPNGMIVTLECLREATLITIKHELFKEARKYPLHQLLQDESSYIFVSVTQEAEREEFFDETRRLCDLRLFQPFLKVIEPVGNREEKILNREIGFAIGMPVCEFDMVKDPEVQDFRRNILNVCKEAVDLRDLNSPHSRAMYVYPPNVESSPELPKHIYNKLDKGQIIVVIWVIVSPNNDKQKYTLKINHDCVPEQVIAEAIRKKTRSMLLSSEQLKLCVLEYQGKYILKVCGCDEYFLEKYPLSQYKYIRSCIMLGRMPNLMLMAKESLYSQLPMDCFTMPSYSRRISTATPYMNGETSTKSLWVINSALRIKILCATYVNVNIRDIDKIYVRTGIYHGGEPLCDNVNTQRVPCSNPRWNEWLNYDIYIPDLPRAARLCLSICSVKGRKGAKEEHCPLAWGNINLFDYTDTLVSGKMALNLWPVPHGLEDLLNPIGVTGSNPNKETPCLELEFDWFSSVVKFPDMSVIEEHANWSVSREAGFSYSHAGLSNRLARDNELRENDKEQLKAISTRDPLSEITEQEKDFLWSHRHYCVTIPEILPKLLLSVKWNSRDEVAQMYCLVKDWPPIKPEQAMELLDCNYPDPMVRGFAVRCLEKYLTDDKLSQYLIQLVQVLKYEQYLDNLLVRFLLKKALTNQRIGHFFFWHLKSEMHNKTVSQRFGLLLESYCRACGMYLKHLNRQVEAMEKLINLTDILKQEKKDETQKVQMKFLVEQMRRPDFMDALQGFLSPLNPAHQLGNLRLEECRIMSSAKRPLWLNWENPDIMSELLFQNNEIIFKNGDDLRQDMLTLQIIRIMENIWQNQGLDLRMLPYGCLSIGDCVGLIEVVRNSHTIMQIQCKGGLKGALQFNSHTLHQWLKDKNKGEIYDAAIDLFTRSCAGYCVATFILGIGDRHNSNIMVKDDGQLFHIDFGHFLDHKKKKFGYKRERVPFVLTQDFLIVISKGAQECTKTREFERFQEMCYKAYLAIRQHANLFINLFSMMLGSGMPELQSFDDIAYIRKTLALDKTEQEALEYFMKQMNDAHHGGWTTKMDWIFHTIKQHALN
Chain of PI3Kα (P27986 whole entry partner): as the sequence (P27986 whole entry partner, species assumed) above

SMILES	IC50 (PI3Kβ) [nM]	IC50 (PI3Kα) [nM]	IC50 (mTOR/GbL/Raptor (mTORC1)) [nM]	IC50 ([1]; Homo sapiens, PC-3, 3 h) [nM]	IC50 (PC-3 cells; Homo sapiens, PC-3, 48 h) [nM]	Mouse Liver Microsome Oxidation (%) [2] [%]	IC50 (MCF-7 cells; Homo sapiens, MCF7, 48 h) [nM]	IC50 [1] [nM]	IC50 (PC-3 cells; PC-3, 48 hr) [nM]	IC50 (MCF-7 cells) [nM]
Cc1nc(N)nc2c1cc(-c1ccc(N)nc1)c(=O)n2[C@H]1CCCOC1	60.8	7.3	3							
Cc1nc(N)nc2c1cc(-c1ccc(N(C)C)nc1)c(=O)n2C1CCCOC1 (centres unmarked) [reference compound] [listing 1 of 2 here]				71.7	1330	41.3	247			
COc1ccc(-c2cc3c(C)nc(N)nc3n(C3CCCOC3)c2=O)cn1 (centres unmarked) [reference compound]	6.8	2.8	6.8	40.8	469	45.6	218			
Cc1nc(N)nc2c1cc(-c1ccc(N)nc1)c(=O)n2C1CCCOC1 (centres unmarked) [listing 1 of 2 here]				25.6	297	6.6	151			
Cc1nc(N)nc2c1cc(-c1ccc(N)nc1)c(=O)n2C1CCOCC1	19.8	9	3.2	25	280	−7.8	152			
Cc1nc(N)nc2c1cc(-c1ccc(N)nc1)c(=O)n2C1CCOC1 (centres unmarked) [listing 1 of 2 here]	34	< 9.1	2.5			−8.2		18.5	497	217
Cc1nc(N)nc2c1cc(-c1ccc(N)nc1)c(=O)n2C1CCCOC1 (centres unmarked) [listing 2 of 2 here]	52.1	5.5	2.6			15.2		15.8	150	97.8
Cc1nc(N)nc2c1cc(-c1ccc(N)nc1)c(=O)n2C1CCOC1 (centres unmarked) [listing 2 of 2 here]				36.6	401	1.7	377			
Cc1nc(N)nc2c1cc(-c1ccc(N(C)C)nc1)c(=O)n2C1CCCOC1 (centres unmarked) [reference compound] [listing 2 of 2 here]	205	13.5	6.1			31.2		96.2	741	151
Cc1nc(N)nc2c1cc(-c1ccc(N(C)C)nc1)c(=O)n2[C@H]1CCCOC1 [reference compound]	471	9.2	5.8							
Cc1nc(N)nc2c1cc(-c1ccc(N)nc1)c(=O)n2[C@H]1CCOC1	16.7	15.5	5.5							
